# Structures can show the parent of a compound that is named as a salt.
# Columns and labels:
# [1] = test system: maximal electroshock seizure threshold; experiment: Maximal electroshock seizure (MEST) threshold test, mouse model; assay type: in vivo, mice; conditions: 10 mg/kg p.o. at 2 h
# Experimental: The maximal electroshock seizure (MEST) threshold test in rodents is particularly sensitive for detecting potential anticonvulsant properties^1. In this model, anticonvulsant agents elevate the threshold to electrically-induced seizures whilst proconvulsants lower the seizure threshold.
# Mice (naive male, Charles River, U.K. CD-1 strain, 25-30 g) are randomly assigned to groups of 10-20 and dosed orally or intraperitoneally at a dose volume of 10 ml/kg with various doses of compound (0.3-300 mg/kg) or vehicle. […] The mean current and standard error required to induce a tonic seizure in 50% (CC50) of the mice in a particular treatment group is determined by the `up and down` method of Dixon and Mood (1948)^2. Statistical comparisons between vehicle- and drug-treated groups are made using the method of Litchfield and Wilcoxon (1949)^3.
# In control animals the CC50 is usually 14-18 mA. […] If a tonic convulsion does occur, then the current is decreased, and so on until all the animals in the group have been tested.
# Studies are carried out using a Hugo Sachs Electronik Constant Current Shock Generator with totally variable control of shock level from 0 to 300 mA and steps of 2 mA are usually used.
# [2] = molecular target: novel receptor obtainable from rat forebrain tissue ([3H]-Compound A binding site); experiment: Radioligand binding assay, displacement of [3H]-Compound A from rat forebrain tissue; conditions: competition with [3H]-Compound A, Table
# Experimental: WO 92/22293 (SmithKline Beecham) discloses compounds having anti-convulsantactivity, including inter alia the compound trans-(+)-6-acetyl-4S-(4-fluorobenzoylamino)-3,4-dihydro-2,2-dimethyl-2H-1-benzopyran-3R-ol (hereinafter referred to as Compound A). […] The affinity of test compounds to the novel receptor site is assessed as follows. Whole forebrain tissue is obtained from rats. The tissue is first homogenised in buffer (usually 50 mM Tris/HCl, pH 7.4). The homogenised tissue is washed by centrifugation and resuspension in the same buffer, then stored at -70° C. until used. To carry out the radioligand binding assay, aliquots of tissue prepared as above (usually at a concentration of 1-2 mg protein/ml) are mixed with aliquots of [3H]-Compound A dissolved in buffer. The final concentration of [3H]-Compound A in the mixture is usually 20 nM. The mixture is incubated at room temperature for 1 hour. [3H]-Compound A bound to the tissue is then separated from unbound [3H]-Compound A by filtration through Whatman GF/B glass fibre filters. The filters are then washed rapidly with ice-cold buffer. The amount of radioactivity bound to the tissue trapped on the filters is measured by addition of liquid scintillation cocktail to the filters followed by counting in a liquid scintillation counter. In order to determine the amount of "specific" binding of [3H]-Compound A, parallel assays are carried out as above in which [3H]-Compound A and tissue are incubated together in the presence of unlabelled Compound A (usually 3 μM). The amount of binding of [3H]-Compound A remaining in the presence of this unlabelled compound is defined as "non-specific" binding. This amount is subtracted from the total amount of [3H]-Compound A binding (i.e. that present in the absence of unlabelled compound) to obtain the amount of "specific" binding of [3H]-Compound A to the novel site. The affinity of the binding of test compounds to the novel site can be estimated by incubating together [3H]-Compound A and tissue in the presence of a range of concentrations of the compound to be tested. The decrease in the level of specific [3H]-Compound A binding as a result of competition by increasing concentrations of the compound under test is plotted graphically, and non-linear regression analysis of the resultant curve is used to provide an estimate of compound affinity in terms of pKi value.
# [3] = test system: maximal electroshock seizure threshold; experiment: Maximal electroshock seizure (MEST) threshold test, rat model; assay type: in vivo, rats; conditions: percentage increase in CC50 compared to the control, suspended in 1% methyl cellulose
# Experimental: The maximal electroshock seizure (MEST) threshold test in rodents is particularly sensitive for detecting potential anticonvulsant properties^1. In this model, anticonvulsant agents elevate the threshold to electrically-induced seizures whilst proconvulsants lower the seizure threshold. The threshold for maximal (tonic hindlimb extension) electroshock seizures in male rats (Sprague Dawley, 80-150 g, 6 weeks old) was determined by a Hugo Sachs Electronik stimulator which delivered a constant current (0.3 sec duration; from 1-300 mA in steps of 5-20 mA). The procedure is similar to that outlined above for mouse and full details are as published by Upton et al,.^4 The percentage increase or decrease in CC50 for each group compared to the control is calculated. Drugs are suspended in 1% methyl cellulose.
pKI Compound A [2],SMILES,percentage increases in seizure threshold [1],Rat MEST at 2 mg/kg p.o at 2h (increases) [3]
7.9,"CC(C)Oc1ccc(C(=O)Nc2ccc3c(c2)CN(C)CC3(C)C)cc1Cl [Example 11, N-(2,4,4-Trimethyl-4H-isoquinolin-7-yl)-3-chloro--4-iso-propoxybenzamide]",–,204
8.2,"CCOc1ccc(C(=O)Nc2ccc3c(c2)CN(C)CC3(C)C)cc1Br [Example 10, N-(2,4,4-Trimethyl-4H-isoquinolin-7-yl)-3-bromo-4-ethoxybenzamide]",–,294
8.5,"COc1ccc(C(=O)Nc2ccc3c(c2)CN(C)CC3(C)C)cc1C(F)(F)F.Cl [Example 7, N-(2,4,4-Trimethyl-4H-isoquinolin-7-yl)-4-methoxy-3-trifluoromethylbenzamide, hydrochloride]",–,510

# The remaining lines, values behind:
SMILES,pKI Compound A [2],percentage increases in seizure threshold [1],Rat MEST at 2 mg/kg p.o at 2h (increases) [3]
"COc1cc(OC(C)C)c(Cl)cc1C(=O)Nc1cccc2c1CCN(C)C2C (racemic) [Example 4, (±) N-(1,2-Dimethyl-1,2,3,4-tetrahydroisoquinolin-5-yl)-5-chloro-4-iso-propoxy-2-methoxybenzamide, hydrochloride]",–,47%,–
"COc1cc(C(C)(C)C)ccc1C(=O)Nc1cccc2c1CCN(C)C2C (racemic) [Example 5, (±) N-(1,2-Dimethyl-1,2,3,4-tetrahydroisoquinolin-5-yl)-tert-butyl-2-methoxybenzamide, hydrochloride]",–,46%,–
"CC(C)c1ccc(C(=O)Nc2ccc3c(c2)CN(C)CC3(C)C)cc1C#N [Example 8, N-(2,4,4-Trimethyl-4H-isoquinolin-7-yl)-3-cyano-4-iso-propylbenzamide]",8.0,–,120
"CCc1ccc(C(=O)Nc2ccc3c(c2)CN(C)CC3(C)C)cc1Br [Example 9, N-(2,4,4,-Trimethyl-4H-isoquinolin-7-yl)-3-bromo-4-ethylbenzamide]",8.3,–,53
"COc1cc(C)c(C(F)(F)F)cc1C(=O)Nc1cccc2c1CCN(C)C2C (racemic) [Example 6, (±) N-(1,2-Dimethyl-1,2,3,4-tetrahydroisoquinolin-5-yl)-5-trifluoromethyl-2-methoxy-4-methyl benzamide, hydrochloride]",–,36%,–
